Where two headings read alike, the source gives them in different places.
Experiments:
[1] = n-octanol/water shake-flask distribution coefficient; type: physicochemical
From the text: The partition coefficient (Pow) or the distribution ratio (Dow) between octanol and water are most commonly used measures of the hydrophobicity of compounds. Dow can depend on the concentration of solute, but at reasonably low concentrations. If the solute is in the same form in both phases, Dow becomes constant and is called the partition coefficient Pow. Pow plays an important role in determining the physico-chemical properties and the behaviour of numerous organic compounds in biological systems. Pow is applied to quantitative structure-activity relationship studies, and as a measure of hydrophobicity. All the partition measurements are carried out using a 1-octanol/water shake-flask procedure (Leo, A J. 1991, “Hydrophobic parameter: measurement and calculation”, Methods Enzymol. 202:544-91) or simply by the elution time of solute from HPLC column. Thereafter, the transport properties of the iron-complexes are examined in the water/lipid membrane system (liposomes), which mimics biomembranes much better than the octanol/water system (Breuer et al, 1995).
1-Octanol (Riedel-deHaën, synthesis grade (250-270 nm abs.<0.06) and glass distilled deionized water were used as the partitioning solutions. A Hewlett-Packard 8450A diode array spectrophotometer was used for the quantitative determination of the tested com-pounds in the standard solutions and in the partitioned solutions. The aqueous phase stock solutions were shaken with an excess of 1-octanol to presaturate them and were then allow-ed to stand overnight before use. The 1-octanol stock solutions were also presaturated with 10 mM NaOH and allowed to settle overnight. The experiments were performed in 10-ml stoppered centrifuge tubes. The tubes were inverted gently for 5 min and then, to assure complete phase separation, they were centrifuged for 20 min at 1,000-2,000 g. The aqueous and organic phases were removed separately and analyzed by UV spectrophotometry.
Lipophilicity plays an important role in drug absorption and distribution. The logarithm of the n-octanol/water distribution coefficients (logD) is the most commonly used measure of the lipophilicity of a drug candidate. Here we used an n-octanol/water shake-flask procedure to determine logD. […] In acidic and basic solution, all the test compounds have low log D values, which refer to a good hydrophilicity. This can be explained by the formation of oxinium chloride (in acid) and sodium oxinate (in base) derivatives.

rat brain MAO-A = biological target: T1, rat brain MAO-A (Rattus norvegicus, UniProt P21396); assay: In vitro inhibition of rat brain MAO-A; type: biochemical; conditions: read-out: inhibition of MAO-A
T1 construct: from tissue; host or cells: rat brain homogenate, 4500 g pellet
T1 sequence (P21396 1-526): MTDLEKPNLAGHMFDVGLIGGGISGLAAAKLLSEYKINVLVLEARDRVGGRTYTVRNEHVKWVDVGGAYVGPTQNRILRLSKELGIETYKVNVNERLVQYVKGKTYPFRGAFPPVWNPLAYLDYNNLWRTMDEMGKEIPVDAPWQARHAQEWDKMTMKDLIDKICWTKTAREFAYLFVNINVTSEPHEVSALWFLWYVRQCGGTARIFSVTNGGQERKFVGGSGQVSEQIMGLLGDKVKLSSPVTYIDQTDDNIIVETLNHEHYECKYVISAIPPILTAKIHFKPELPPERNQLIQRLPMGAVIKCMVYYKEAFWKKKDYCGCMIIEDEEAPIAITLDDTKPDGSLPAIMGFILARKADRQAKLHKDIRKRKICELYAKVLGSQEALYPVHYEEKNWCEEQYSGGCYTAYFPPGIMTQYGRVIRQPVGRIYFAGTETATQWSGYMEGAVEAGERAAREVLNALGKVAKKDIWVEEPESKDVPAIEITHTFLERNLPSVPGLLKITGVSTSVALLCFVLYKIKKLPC
Description: Rats were decapitated and the brains were quickly taken into a weighted ice-cold sucrose buffer (0.32 M), and their weights were determined. All subsequent procedures were performed at 0-4° C. The brains were homogenized in 0.25 M sucrose (one part tissue to 20 parts sucrose) in a Teflon glass homogenizer followed by the addition of sucrose buffer to a final concentration of 10% homogenate. The homogenates were centrifuged at 600 g for 15 min. The supernatant fraction was taken out and centrifuged at 4500 g for 30 min, the pellet was diluted in 0.32 M sucrose buffer and kept frozen for later assaying of MAO. Protein concentration was determined with Bradford reagent at 595 nm, using bovine serum albumin as a standard.
The test compound was added to a suitable dilution of the enzyme preparation (70 μg protein for MAO-B and 150 μg MAO-A assay) in 0.05 M phosphate buffer (pH 7.4). The mixture was incubated together with […], a specific inhibitor of MAO-B (for determination of MAO-A) or […] clorgylin, a specific inhibitor of MAO-A (for determination of MAO-B). Incubation was carried for 1 h at 37° C. before addition of ^14C-5-hydroxytryptamine binoxalate ([…]) for determination of MAO-A, or ^14C-phenylethylamine 100 µM for determination of MAO-B, and incubation continued for 30 min or 20 min, respectively. The reaction was stopped with 2 M ice-cold citric acid, and the metabolites were extracted and determined by liquid-scintillation counting in cpm units.
MAO-A and MAO-B activities were determined in rat brain homogenate in vitro following incubation with varying concentrations of the test compounds.
In another experiment, the in vitro inhibitory activity of HLA20, M32, VK-28, M30, M31, and propargylamine (P) was tested against rat brain MAO-A. The test compounds were added to buffer containing 10^−7M deprenyl and were incubated with the tissue homogenate for 60 min at 37° C. before addition of ^14C-5-hydroxytryptamine. MAO-A activity in presence of the test compound was expressed as a percentage of that in control samples.

| Structure (SMILES) | logD ([1]; H2O, read-out: LogD in H2O) | D in 0.01N HCl ([1]; distribution ratio D = Corg/Caq, 0.01N HCl) | D in 0.01N NaOH ([1]; distribution ratio D = Corg/Caq, 0.01N NaOH) | D in H2O ([1]; distribution ratio D = Corg/Caq, H2O) | logD ([1]; pH 2, 0.01N HCl, read-out: LogD in 0.01N HCl) | logD ([1]; pH 12, 0.01N NaOH, read-out: LogD in 0.01N NaOH) | inhibition at 100 µM (rat brain MAO-A) | inhibition at 100 µM (rat brain MAO-A; 100 μM) |
| --- | --- | --- | --- | --- | --- | --- | --- | --- |
| C#CCN1CCN(Cc2ccc(O)c3ncccc23)CC1 [HLA20, 5-(4-propargylpiperazin-1-ylmethyl)-8-hydroxyquinoline] | 1.57 | 0.025 | 0.70 | 37.02 | -1.6 | -0.16 | 26.1% |  |
| OCCN1CCN(Cc2ccc(O)c3ncccc23)CC1 [VK-28, 5-[4-(2-hydroxyethyl)piperazin-1-ylmethyl]-8-hydroxyquinoline, reference compound] |  |  |  |  |  |  |  | 15.1% |

— patent publication US8058442B2 (Technion Research and Development Foundation Ltd., priority 2002, dated 2011)
